Source: the NIST ThermoML archive (doi:10.1021/je9003383)
± gives the expanded uncertainty stated by the source.

Assay: mn = molality of the nth substance listed, in mol/kg
Settings: 293.15 K, 101 kPa, Liquid, Vibrating tube method

CN(CCO)CCO [N-methyldiethanolamine] + O
mass density (m1 = 1.867): 1014.8 ± 1 kg/m3 | mass density (m1 = 4.118): 1029.6 ± 1 kg/m3 | mass density (m1 = 6.189): 1038.8 ± 1 kg/m3 | mass density (m1 = 8.119): 1044.8 ± 1 kg/m3 | mass density (m1 = 10.03): 1048.6 ± 1.1 kg/m3 | mass density (m1 = 12.1): 1051.6 ± 1.1 kg/m3

C1CNCCN1 [piperazine] + O
mass density (m1 = 0.2628): 999.1 ± 1 kg/m3 | mass density (m1 = 0.4689): 999.8 ± 1 kg/m3 | mass density (m1 = 0.7153): 1000.8 ± 1 kg/m3 | mass density (m1 = 0.9675): 1001.8 ± 1 kg/m3 | mass density (m1 = 1.268): 1003.1 ± 1 kg/m3 | mass density (m1 = 1.448): 1004 ± 1 kg/m3
